Results taken from US20080070898A1, “Piperidine Derivative or Pharmaceutically Acceptable Salt Thereof” (priority 2004, published 2008).
Counter-ions that a name gives are not always drawn.

What was measured:
sodium channel = experiment: [14C] guanidine uptake test (sodium channel inhibition test), veratridine-induced uptake into rat cerebral cortex primary neurons; type: cell-based; details: 100 μM veratridine, 25° C., 15 minutes, specific uptake defined by 1 mM mexiletine
Method: (Sodium Channel Inhibition Test)
The [^14C] guanidine uptake test was conducted by modifying the method of Bonisch et al. (British Journal of Pharmacology 108, 436-442, 1993). The [^14C] guanidine was used as a sodium tracer, and the inhibitory activity on uptake of [^14C] guanidine induced by veratridine as a sodium channel activator into rat cerebral cortex primary neurons was measured.
a. Preparation of Rat Cerebral Cortex Primary Neuron Culture System.
A pregnant rat (Wistar, female, pregnancy=19 days old) was anesthetized with diethyl ether and killed by bleeding with the cutting of the carotid artery. Fetuses were excised from the pregnant rat and sterilized with ethanol for disinfection. Then, from the fetuses was dissociated the cerebral cortex. The cerebral cortex was digested with papain and dispersed in a culture medium. Then, the dissociated neurons were placed in a 96-well white plate coated with a poly-L-lysine, at a density of […], and cultured for 2 days in a CO2 incubator (37° C., 5% CO2)
b. Evaluation of Test Compounds
Each well was washed once with an assay buffer (135 mM choline Cl, 5 mM KCl, 1 mM MgSO4, 5.5 mM glucose, 1 mg/mL BSA, 10 mM Hepes-Tris, pH 7.4). The assay buffer was added to each well and incubated at 25° C. for 10 minutes. Then, the assay buffer was replaced by a reaction solution (test compound, [^14C] guanidine and 100 μM veratridine) and incubated at 25° C. for 15 minutes. The reaction was terminated by three times washing with a cold-washing buffer (135 mM NaCl, 5 mM KCl, 1 mM MgSO4, 10 mM Hepes-Tris, pH 7.4). To each well was added 17 μL of 0.1 N NaOH; stirring was made; then, 100 μL of a scintillator was added; and the radioactivity of each well was measured using a liquid scintillator counter. In each test, the uptake amount of [^14C] guanidine inhibited by 1 mM of mexiletine was taken as the portion of the specific uptake via sodium channel. The activity of test compound on sodium channel is expressed by 50% inhibitory concentration (IC50) for the specific uptake.

[1] = tested on: streptozotocin (STZ)-induced diabetic mice; experiment: Analgesic action on diabetic neuropathy in streptozotocin-induced diabetic mice (tail pinch test); type: in vivo; details: orally 30 mg/kg, 45 minutes prior to measurement, Day 15 after STZ injection, ICR mice
Method: (Analgesic Action on Diabetic Neuropathy in Streptozotocin-Induced Diabetic Mice)
Representative compounds of Compound (I) of the present invention were assessed for the analgesic action on diabetic neuropathy in streptozotocin (STZ)-induced diabetic mice to confirm the effect on neuropathic pain. The assessment was performed by the method of Kamei et al. (Pharmacology Biochemistry & Behavior 39, 541-544, 1991) with some modifications.
Male ICR mice of 4 weeks old were intraperitoneally injected with 200 mg/kg weight of STZ to prepare mice with diabetic neuropathy. The analgesic action was assessed by the tail pinch test. […] On Day 14 following the STZ injection, a pretest was carried out to determine the response latency before the administration of a test compound. Only the animals showing not longer than 3 seconds of the response latency in the pretest were used for the test compound assessment on the following day (Day 15 after STZ injection). In the test compound assessment, the response latency after the administration of a test compound was measured. The test compound was orally administered at a dose of 30 mg/kg, 45 minutes prior to the response latency measurement. The analgesic action of a test compound is expressed as prolongation of latency (in seconds) calculated by the formula: (response latency after administration of a test compound)−(response latency before administration of a test compound).

[2] = tested on: L5/L6 spinal nerve ligation rats; experiment: animal or person; details: Rattus norvegicus, po, read-out: ED50 (anti-allodynia action potency)
Method: (Anti-Allodynia Effect in Rats with L5/L6 Spinal Nerve Ligation)
The assessment was performed by the method of Kim and Chung (Pain 50, 355-363, 1992) with some modifications. Under pentobarbital anesthesia, male SD rats of 5 or 6 weeks old were given surgery to ligate both the left L5 and L6 lumbar spinal nerves tightly with silk threads. For the assessment of analgesic action, the von Frey hair test was adopted. That is, the animal's hindpaw was picked with hair and the lowest strength of hair for limb withdrawal response was designated as a response threshold (log gram) to mechanical stimulation. […] On the day before the assessment of a test compound, the response threshold before administration of a test compound was measured. The animals were divided into 4 to 5 groups so that differences in the mean values of response thresholds before administration among the groups and variation within groups become small. In the assessment of a test compound, the response threshold after administration of the test compound was measured. The test compound was orally given 30 minutes before measurement of the response threshold. The anti-allodynia action potency of a test compound is expressed as ED50. In the calculation of the ED50, the thresholds of ipsilateral and contralateral paws in the solvent group were designated as 0% and 100%, respectively.

SMILES	IC50 (sodium channel) [µM]	Increase in latent time (prolongation of latency, tail pinch) [1] [s]	ED50 [2] [mg/kg]
O=C(CN1CCOCC1)N1CCC(/C=C/c2ccccc2Cl)CC1 [Example 1, 4-(2-{4-[(E)-2-(2-chlorophenyl)vinyl]piperidin-1-yl}-2-oxoethyl)morpholine oxalate]	27		
Cc1ccccc1/C=C/C1CCN(C(=O)CN2CCOCC2)CC1 [Example 3, 4-(2-{4-[(E)-2-(2-methylphenyl)vinyl]piperidin-1-yl}-2-oxoethyl)morpholine]		2.3	
CC(C)Oc1ccccc1/C=C/C1CCN(C(=O)CN2CCOCC2)CC1 [Example 10]	16		
CC(C)c1ccc(/C=C/C2CCN(C(=O)CN3CCOCC3)CC2)cc1 [Example 26, 4-(2-{4-[(E)-2-(4-isopropylphenyl)vinyl]piperidin-1-yl}-2-oxoethyl)morpholine]	25	2.3	
O=C(CN1CCOCC1)N1CCC(/C=C/c2ccc(Cl)cc2)CC1 [Example 40, 4-(2-{4-[(E)-2-(4-chlorophenyl)vinyl]piperidin-1-yl}-2-oxoethyl)morpholine]	23	3.4	
O=C(CN1CCOCC1)N1CCC(/C=C\c2ccc(Cl)cc2)CC1 [Example 52]	24		
O=C(CN1CCCOCC1)N1CCC(/C=C/c2ccc(Cl)cc2)CC1 [Example 65]	12		
O=C(CN1CCNCC1)N1CCC(/C=C/c2cccc(Cl)c2)CC1 [Example 68, 1-(2-{4-[(E)-2-(3-chlorophenyl)vinyl]piperidin-1-yl}-2-oxoethyl)piperazine di-hydrochloride]	25		
O=C(C1CCCN1)N1CCC(/C=C/c2ccc(Cl)cc2)CC1 (centres unmarked) [Example 74]	13		
O=C(CNC1CCCCC1)N1CCC(/C=C/c2ccc(Cl)cc2)CC1 [Example 76, N-2-{4-[(E)-2-(4-chlorophenyl)vinyl]piperidin-1-yl}-2-oxoethyl)cyclohexaneamine oxalate]	3.4	3.2	
CN(CC(=O)N1CCC(/C=C/c2ccc(Cl)cc2)CC1)C1CCCCC1 [Example 78, N-2-{4-[(E)-2-(4-chlorophenyl)vinyl]piperidin-1-yl}-2-oxoethyl)-N-methylcyclohexaneamine oxalate]	3.1	2.4	
Cc1cccc(C)c1OCC(C)N (centres unmarked) [mexiletine, reference compound]	~70		~70
